Read-outs that look alike come from different tables or passages of the source.
Legend:
[1] = biological target: T1, medium chain dehydrogenase (Sus scrofa, UniProt P41367); assay: Competition studies with the substrate octanoyl-CoA; type: biochemical, pig; set-up: medium-chain acyl-CoA dehydrogenase (MC-CoA DH) as purified from pig kidney; from tissue; host or cells: pig kidney; details: 30 μM octanoyl-CoA, 3 nM dehydrogenase
T1 sequence (P41367 26-421): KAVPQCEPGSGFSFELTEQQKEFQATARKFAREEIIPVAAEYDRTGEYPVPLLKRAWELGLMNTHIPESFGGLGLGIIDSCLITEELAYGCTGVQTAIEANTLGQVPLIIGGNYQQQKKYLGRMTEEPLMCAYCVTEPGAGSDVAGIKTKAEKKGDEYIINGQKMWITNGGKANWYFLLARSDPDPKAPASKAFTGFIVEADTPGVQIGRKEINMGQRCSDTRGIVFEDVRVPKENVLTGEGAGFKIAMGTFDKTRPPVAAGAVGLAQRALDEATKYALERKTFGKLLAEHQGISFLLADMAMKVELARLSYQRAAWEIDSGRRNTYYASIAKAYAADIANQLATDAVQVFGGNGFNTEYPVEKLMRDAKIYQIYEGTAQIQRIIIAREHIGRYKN
Method: (§1) General Information: Medium chain acyl-CoA dehydrogenase was purified from pig kidney as described previously (33). Porcine liver esterase (EC 3.1.1.1), CoASH (lithium salt), D-pantethine, and 5,5′-dithio-bis(2-nitrobenzoic acid) were obtained from Sigma. E,E-2,4-octadienal and E,E-2,4-dodecadienal were from Alfa and K & K Laboratories respectively. […] Thorpe et al. in Biochemistry 1979, 18, 331–337. Unless otherwise stated, buffers were 50 mM potassium phosphate, pH 7.6, containing 0.3 mM EDTA, and experiments were conducted at 25° C. Assays of the medium chain dehydrogenase were as described previously, see C. Thorpe et al. in Anal. Biochem. 1990, 186, 280–284. Static and rapid-reaction spectrophotometry were performed as reported in C. Thorpe et al, in Biochemistry 1998, 37, 10469–10477.
In competition studies with the substrate octanoyl-CoA, at a concentration of 30 μM, both the CoA and pantetheine analogs of the compounds of the invention are shown to be relatively strong reversible inhibitors of medium chain dehydrogenase. The assay studies included a dehydrogenase concentration of 3 nM. Compared to a control without inhibitor, 4.4 nM of the 3,4-decadienoyl-CoA analog decreased the rate to 50% within 1 minute.

[2] = biological target: T2, medium-chain acyl-CoA dehydrogenase (MC-CoA DH) (Sus scrofa, UniProt P41367); assay: Kinetic stability of enzyme adducts (return of oxidized flavin absorbance at 446 nm); type: biochemical, pig; details: for rate constant of enzyme adduct decomposition: 1.6 equivalents racemic 3,4-dienoyl-CoA (0.8 equivalent R-isomer), 9.5 μM enzyme, pH 7.6; for enzyme adduct stability relative to the corresponding full length CoA-thioester: times more stable than the CoA adduct
T2 construct: medium-chain acyl-CoA dehydrogenase (MC-CoA DH) as purified from pig kidney; from tissue; host or cells: pig kidney
T2 sequence (P41367 26-421): T1 sequence (P41367 26-421)
Description: The reduced flavin adduct decomposes to the 2,4-conjugated diene with the return of the oxidized flavin absorbance spectrum. This isomerization provides a measure of the kinetic stability of each of the enzyme adducts formed. The dehydrogenase enzyme used in the stability testing of the inventive compounds was medium-chain acyl-CoA dehydrogenase (MC-CoA DH) as purified from pig kidney.
as §1
A solution of acyl-CoA dehydrogenase (9.5 μM in 50 mM phosphate buffer, pH 7.6, 25° C.) is mixed with 1.6 equivalents of racemic 3,4-dienoyl-CoA derivatives (0.8 equivalent of R-isomer) containing 5, 6, 7, 8, 10, 12 and 15 carbon acyl chains. The return of oxidized flavin absorbance was monitored at 446 nm. A sub-stoichiometric amount (1.6 equivalents racemate: corresponding to 0.8 equivalent of the R-isomer) is used to avoid the lag phases encountered in the presence of excess inhibitor. The return of oxidized flavin absorbance is strongly chain length dependent.
Enzyme adduct stabilities with the medium-chain acyl-CoA dehydrogenase of R-(−)-3,4-decadienoyl-CoA, R-(−)-3,4-decadienoyl-pantetheine, and R-(−)-3,4-decadienoyl N-acetylcysteamine were compared. The dehydrogenase was incubated with 0.8 equivalents of the CoA, pantetheine and N-acetylcysteamine thioesters of R-(−)-3,4-decadienoic acid until maximal bleaching of the flavin chromophore was observed. The reappearance of the oxidized flavin chromophore was then followed at 25° C.

[3] = biological target: T1, medium chain dehydrogenase; details: absence of displacing ligand; cited from earlier work
[4] = biological target: T3, medium chain acyl-CoA dehydrogenase (Sus scrofa, UniProt P41367); assay: Spectral titration / inhibition of the dehydrogenase by allenic thioesters; type: biochemical, pig
T3 construct: medium-chain acyl-CoA dehydrogenase (MC-CoA DH) as purified from pig kidney; from tissue; host or cells: pig kidney
T3 sequence (P41367 26-421): T1 sequence (P41367 26-421)
Description: See, Example 1. The (S)-enantiomer is rapidly isomerized to the trans-2,4-conjugated diene. […] These structural studies show a surprising, but relatively large, variation in the interaction between structurally similar inhibitors.
as §1
The spectral changes were completed rapidly before measurement could be made. Intermediate spectra are omitted for clarity. […] In FIG. 1C, the enzyme (5.06 μM in 50 mM phosphate buffer, pH 7.6, 25° C.; curve 1) was titrated with 2.53, 5.06, 36.4, 66.8, 109.3 μM of S-(+)-decadienoyl-CoA (curves 2–6, respectively). Intermediate spectra are omitted for clarity. The absorbance values at 446 nm are shown in the inset.

[5] = biological target: T3, medium chain acyl-CoA dehydrogenase; assay: Enzyme adduct formation: bleaching of the flavin chromophore at 446 nm (stopped-flow / conventional spectrophotometry); type: biochemical, pig; details: for limiting rate of flavin bleaching / rate constant of bleaching of the flavin chromophore at 446 nm: 2° C.; for rate constant of bleaching of the flavin chromophore at 446 nm: at 50 μM; for long wavelength band: compared with the CoA compound, pantetheine at 50 μM
Method: as §1
(§2) Bleaching of the flavin chromophore, followed at 446 nm, is relatively rapid for the pantetheine compound, but slow enough for a conventional spectrophotometer with the N-acetylcysteamine compound. At 50 μM, the rate constants are 30.9 s^−1, 7.5 s^−1, and 0.035 s^−1 for the CoA, pantetheine, N-acetylcysteamine compounds, respectively at 2° C. Limiting rates of 33 s^−1 and 55 s^−1 are obtained for CoA and pantetheine thioesters, respectively.
Dehydrogenase and R-(−)3,4-decadienoyl-CoA are mixed in the stopped-flow spectrophotometer at 2° C. to give final concentrations of 11 μM and 60 μM. The absorbance changes at 446 and 800 nm are shown in the inset of FIG. 2. As is observed with a number of diverse thioester substrates, such as butyryl-, octanoyl- and dihydrocinnamoyl-CoA, bleaching of the flavin at 446 nm is biphasic.
The absorbance changes were recorded in a 2 cm path-length cell after mixing dehydrogenase and R-(−)-thioester in the stopped flow spectrophotometer to give final concentrations of 5.5 and 30 μM respectively in 50 mM phosphate buffer, pH 7.6 at 2° C. […] Absorbance traces at a range of wavelengths were used to construct the spectrum of the intermediate species maximal at about 20 msec.

[6] = Solubility observation during rate measurements; type: physicochemical
Method: as §2

3,4-decadienoyl pantetheine [3,4-decadienoyl-pantetheine]
IC50 ([1]; read-out: concentration required to decrease the rate to 50% of control): 500 nM

CCCCCCCC=C=CCC(=O)SCCNC(=O)CCNC(=O)[C@H](O)C(C)(C)COP(=O)(O)OP(=O)(O)OC[C@H]1O[C@@H](n2cnc3c(N)ncnc32)[C@H](O)[C@@H]1OP(=O)(O)O (racemic) [3,4-dodecadienoyl-CoA]
rate constant of enzyme adduct decomposition ([2]; 25° C.): 0.18 h⁻¹

CCC=C=CCC(=O)SCCNC(=O)CCNC(=O)[C@H](O)C(C)(C)COP(=O)(O)OP(=O)(O)OC[C@H]1O[C@@H](n2cnc3c(N)ncnc32)[C@H](O)[C@@H]1OP(=O)(O)O (racemic) [3,4-heptadienoyl-CoA]
rate constant of enzyme adduct decomposition ([2]; 25° C.): 1.9 h⁻¹

CC=C=CCC(=O)SCCNC(=O)CCNC(=O)[C@H](O)C(C)(C)COP(=O)(O)OP(=O)(O)OC[C@H]1O[C@@H](n2cnc3c(N)ncnc32)[C@H](O)[C@@H]1OP(=O)(O)O (racemic) [3,4-hexadienoyl-CoA]
rate constant of enzyme adduct decomposition ([2]; 25° C.): 8.7 h⁻¹

CCCC=C=CCC(=O)SCCNC(=O)CCNC(=O)[C@H](O)C(C)(C)COP(=O)(O)OP(=O)(O)OC[C@H]1O[C@@H](n2cnc3c(N)ncnc32)[C@H](O)[C@@H]1OP(=O)(O)O (racemic) [3,4-octadienoyl-CoA]
rate constant of enzyme adduct decomposition ([2]; 25° C.): 0.08 h⁻¹

CCCCCCCCCCC=C=CCC(=O)SCCNC(=O)CCNC(=O)[C@H](O)C(C)(C)COP(=O)(O)OP(=O)(O)OC[C@H]1O[C@@H](n2cnc3c(N)ncnc32)[C@H](O)[C@@H]1OP(=O)(O)O (racemic) [3,4-pentadecanedienoyl-CoA]
rate constant of enzyme adduct decomposition ([2]; 25° C.): 0.27 h⁻¹

C=C=CCC(=O)SCCNC(=O)CCNC(=O)[C@H](O)C(C)(C)COP(=O)(O)OP(=O)(O)OC[C@H]1O[C@@H](n2cnc3c(N)ncnc32)[C@H](O)[C@@H]1OP(=O)(O)O [3,4-pentadienoyl-CoA, reference compound]
half-life of reduced flavin adduct [3]: about 75 min
rate constant of enzyme adduct decomposition ([2]; 25° C.): 1.6 h⁻¹

CCCC=C=CCC(=O)SCCNC(=O)CCNC(=O)[C@H](O)C(C)(C)COP(=O)(O)OP(=O)(O)OC[C@H]1O[C@@H](n2cnc3c(N)ncnc32)[C@H](O)[C@@H]1OP(=O)(O)O [(R)-3,4-octadienoyl-CoA]
inhibition of the dehydrogenase [4]: potent inhibitor

CCCC=C=CCC(=O)SCCNC(=O)CCNC(=O)[C@H](O)C(C)(C)COP(=O)(O)OP(=O)(O)OC[C@H]1O[C@@H](n2cnc3c(N)ncnc32)[C@H](O)[C@@H]1OP(=O)(O)O [(S)-3,4-octadienoyl-CoA]
inhibition of the dehydrogenase [4]: very little, if any, inhibition

CCCCCC=C=CCC(=O)SCCNC(=O)CCNC(=O)[C@H](O)C(C)(C)COP(=O)(O)OP(=O)(O)OC[C@H]1O[C@@H](n2cnc3c(N)ncnc32)[C@H](O)[C@@H]1OP(=O)(O)O [R-(−)-3,4-decadienoyl-CoA]
stoichiometry of bleaching at 446 nm ([4]; 9.6 μM enzyme, pH 7.6, 25° C., FIG. 1B inset): 0.95 equivalents
limiting rate of flavin bleaching [5]: 33 s⁻¹
rate constant of bleaching of the flavin chromophore at 446 nm [5]: 30.9 s⁻¹

CCCCCC=C=CCC(=O)SCCNC(C)=O [R-(−)-3,4-decadienoyl-N-acetylcysteamine]
solubility [6]: low solubility
regain of flavin absorbance (adduct stability in words) ([2]; 0.8 equivalents, 25° C.): no appreciable regain of the flavin absorbance after two days
enzyme adduct stability relative to the corresponding full length CoA-thioester [2]: greater than 100 times
rate constant of bleaching of the flavin chromophore at 446 nm [5]: 0.035 s⁻¹
long wavelength band [5]: no long-wavelength band was observed

CCCCCC=C=CCC(=O)SCCNC(=O)CCNC(=O)[C@H](O)C(C)(C)CO [R-(−)-3,4-decadienoyl-pantetheine]
enzyme adduct stability relative to the corresponding full length CoA-thioester [2]: ~9 times
enzyme adduct stability relative to the corresponding full length CoA-thioester ([2]; listed as (R)-3,4-decadienoyl-pantetheine): 10 times
limiting rate of flavin bleaching [5]: 55 s⁻¹
rate constant of bleaching of the flavin chromophore at 446 nm [5]: 7.5 s⁻¹
long wavelength band [5]: one quarter as intense

CCCCCC=C=CCC(=O)SCCNC(=O)CCNC(=O)[C@H](O)C(C)(C)COP(=O)(O)OP(=O)(O)OC[C@H]1O[C@@H](n2cnc3c(N)ncnc32)[C@H](O)[C@@H]1OP(=O)(O)O [S-(+)-3,4-decadienoyl-CoA]
inhibition of the dehydrogenase [4]: relatively weak inhibitor
flavin adduct formation ([4]; spectral titration): does not form a detectable flavin adduct

decadienoyl-CoA
rate constant of enzyme adduct decomposition ([2]; 25° C.): 0.12 h⁻¹
IC50 ([1]; within 1 minute, read-out: concentration that decreased the rate to 50% of control): 4.4 nM
